# Laboratory results as given in article PMC8658795 (2021).
# System: DNA duplex (DNA, duplex) CAATCGGATCGAATTCGATCCGATTG
# Test: fluorescent intercalator displacement
# Settings: K+ (50 mM KCl, 10 mM KH2PO4); 1 mM K2EDTA, pH 7.4, room temperature; thiazole orange 0.5 μM displaced (Kf 3 × 10^6 M^-1); duplex 0.25 μM
row,Kb,SMILES
1,(1.24 ± 0.07) × 10^6 M^-1,NN1C(=O)c2c(c3c4ccccc4n([C@@H]4OC[C@H](O)[C@H](O)[C@H]4O)c3c3[nH]c4ccccc4c23)C1=O
2,(2.52 ± 0.4) × 10^5 M^-1,O=C(NN1C(=O)c2c(c3c4ccccc4n([C@H]4OC[C@@H](O)[C@H](O)[C@H]4O)c3c3[nH]c4ccccc4c23)C1=O)c1ccccn1
